# PMC6572064, “Discovery of 2-(1-(3-(4-Chloroxyphenyl)-3-oxo- propyl)pyrrolidine-3-yl)-1H-benzo[d]imidazole-4-carboxamide: A Potent Poly(ADP-ribose) Polymerase (PARP) Inhibitor for Treatment of Cancer” (Molecules, 2019)
# Read-outs that look alike come from different tables or passages of the source.
# Legend:
# [1] = tested on: MDA-MB-436 (a BRCA-1-mutated breast cancer cell line); test: Cell proliferation assay, three-day, CellTiter-Glo, MDA-MB-436; format: cell-based; details: Homo sapiens; for inhibition at 0.00508 µM: MDA-MB-436, MDA-MB-436, Conc. 0.00508 uM; for inhibition at 0.0152 µM: MDA-MB-436, MDA-MB-436, Conc. 0.0152 uM; for inhibition at 0.0457 µM: MDA-MB-436, MDA-MB-436, Conc. 0.0457 uM; for inhibition at 0.41 µM: MDA-MB-436, MDA-MB-436, Conc. 0.41 uM; for inhibition at 1.23 µM: MDA-MB-436, MDA-MB-436, Conc. 1.23 uM; for inhibition at 3.7 µM: MDA-MB-436, MDA-MB-436, Conc. 3.70 uM; for inhibition at 11.11 µM: MDA-MB-436, MDA-MB-436, Conc. 11.11 uM; for inhibition at 33.33 µM: MDA-MB-436, MDA-MB-436, Conc. 33.33 uM; for inhibition at 100 µM: MDA-MB-436, MDA-MB-436, Conc. 100.00 uM; for IC50: MDA-MB-436, 72 h, CellTiter-Glo, read-out: MDA-MB-436 IC50
# Summary of the method: (§1)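 Cells seeded overnight in 384-well plates, then exposed to compounds (DMSO stock diluted in medium) for 72 h at 37 °C, 5% CO2. Viability read as CellTiter-Glo luminescence after 60 min at room temperature.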
# PARP-1 = target: T1, PARP-1 (Homo sapiens, UniProt P09874); test: PARP-1 inhibition assay (PARP-1 Chemiluminescent Assay Kit, BPS Bioscience); format: biochemical; details: for inhibition at 0.01 µM: 10 nM compound
# T1 construct: purchased BPS Bioscience 80569
# T1 sequence (P09874 whole entry): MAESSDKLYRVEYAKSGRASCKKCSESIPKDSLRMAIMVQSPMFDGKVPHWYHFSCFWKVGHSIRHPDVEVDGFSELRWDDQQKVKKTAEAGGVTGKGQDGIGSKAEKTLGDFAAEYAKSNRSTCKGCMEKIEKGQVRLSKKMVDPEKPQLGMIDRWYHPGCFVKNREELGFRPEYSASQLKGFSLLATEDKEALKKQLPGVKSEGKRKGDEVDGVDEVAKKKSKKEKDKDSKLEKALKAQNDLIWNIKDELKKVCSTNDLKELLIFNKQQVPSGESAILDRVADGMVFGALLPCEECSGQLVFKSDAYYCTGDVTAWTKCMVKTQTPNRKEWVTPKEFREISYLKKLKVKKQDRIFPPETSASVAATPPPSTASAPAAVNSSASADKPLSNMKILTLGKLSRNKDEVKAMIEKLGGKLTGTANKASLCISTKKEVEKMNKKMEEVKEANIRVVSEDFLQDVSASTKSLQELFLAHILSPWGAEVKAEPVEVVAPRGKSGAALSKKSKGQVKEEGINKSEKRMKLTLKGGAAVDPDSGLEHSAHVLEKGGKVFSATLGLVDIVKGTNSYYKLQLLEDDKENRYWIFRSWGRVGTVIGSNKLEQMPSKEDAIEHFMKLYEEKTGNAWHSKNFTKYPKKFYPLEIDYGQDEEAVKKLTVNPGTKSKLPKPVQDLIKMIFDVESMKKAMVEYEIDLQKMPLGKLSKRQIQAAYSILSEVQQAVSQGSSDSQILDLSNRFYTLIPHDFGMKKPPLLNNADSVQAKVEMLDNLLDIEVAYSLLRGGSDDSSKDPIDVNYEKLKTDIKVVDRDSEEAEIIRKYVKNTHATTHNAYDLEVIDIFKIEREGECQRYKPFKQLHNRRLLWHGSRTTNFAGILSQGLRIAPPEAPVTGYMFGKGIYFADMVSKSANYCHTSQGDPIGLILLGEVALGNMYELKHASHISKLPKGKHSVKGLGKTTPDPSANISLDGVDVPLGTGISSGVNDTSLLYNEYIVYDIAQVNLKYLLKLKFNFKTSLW
# Protocol: (§2) The PARP-1 and PARP-2 inhibition assays were performed in outsourcing, by a CRO company, Shanghai Medicilon Inc. (Shanghai, China). […] Briefly, PARP-1 or PARP-2 biotinylated substrate was incubated with compounds or solvent control at varying concentrations and an assay buffer containing the PARP-1 or PARP-2 enzyme.
# [2] = tested on: CAPAN-1 (a BRCA-2-mutated pancreatic cancer cell line); test: Cell proliferation assay, three-day, CellTiter-Glo, CAPAN-1; format: cell-based; details: for IC50 / inhibition at 0.00508 µM / inhibition at 0.0152 µM / inhibition at 0.0457 µM / inhibition at […] / inhibition at 0.41 µM / inhibition at 1.23 µM / inhibition at 3.7 µM / inhibition at 11.11 µM / inhibition at 33.33 µM / inhibition at 100 µM: Homo sapiens; for IC50: CAPAN-1, 72 h, CellTiter-Glo, read-out: CAPAN-1 IC50; for inhibition at 0.0457 µM: CAPAN-1, 0.0457 uM; for inhibition at […]: CAPAN-1, 0.14 uM; for inhibition at 0.41 µM: CAPAN-1, 0.41 uM; for inhibition at 1.23 µM: CAPAN-1, 1.23 uM; for inhibition at 3.7 µM: CAPAN-1, 3.70 uM; for inhibition at 11.11 µM: CAPAN-1, 11.11 uM; for inhibition at 33.33 µM: CAPAN-1, 33.33 uM; for inhibition at 100 µM: CAPAN-1, 100.00 uM
# Summary of the method: as §1
# PARP-2 = target: T2, PARP-2 (Homo sapiens, UniProt Q9UGN5); test: PARP-2 inhibition assay (PARP-2 Chemiluminescent Assay Kit, BPS Bioscience); format: biochemical; details: for inhibition at 0.01 µM: 10 nM compound
# T2 construct: purchased BPS Bioscience 80552
# T2 sequence (Q9UGN5 whole entry): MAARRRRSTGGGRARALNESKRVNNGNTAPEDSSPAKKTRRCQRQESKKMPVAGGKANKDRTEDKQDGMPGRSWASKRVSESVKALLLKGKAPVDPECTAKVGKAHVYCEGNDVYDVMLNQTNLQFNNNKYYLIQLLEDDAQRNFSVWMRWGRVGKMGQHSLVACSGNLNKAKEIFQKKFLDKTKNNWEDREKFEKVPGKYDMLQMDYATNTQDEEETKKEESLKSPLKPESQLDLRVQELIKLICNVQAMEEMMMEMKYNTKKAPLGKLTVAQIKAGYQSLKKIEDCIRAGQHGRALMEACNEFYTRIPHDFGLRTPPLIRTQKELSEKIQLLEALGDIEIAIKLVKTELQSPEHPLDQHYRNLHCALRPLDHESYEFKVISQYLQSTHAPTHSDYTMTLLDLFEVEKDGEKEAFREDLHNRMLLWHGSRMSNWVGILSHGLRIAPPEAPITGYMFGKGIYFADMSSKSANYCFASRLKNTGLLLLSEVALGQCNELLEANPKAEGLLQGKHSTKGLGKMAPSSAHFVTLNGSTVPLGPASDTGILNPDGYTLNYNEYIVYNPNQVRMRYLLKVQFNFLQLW
# Protocol: as §2
# [3] = supplement sheet, read-out: 10 nM inhibition% PAPR-1
# [4] = read-out: PARP-1 Inhibition % (10 nM)
# [5] = supplement sheet, read-out: 10 nM inhibition% PAPR-2
# [6] = read-out: PARP-2 Inhibition % (10 nM)
smiles,measurement,setting,value
"NC(=O)c1cccc2[nH]c(C3CCN(CCCNc4ccccc4)C3)nc12 (stereo not drawn) [Compound 5ch, 2-(1-(3-(Phenylamino)propyl)pyrrolidin-3-yl)-1H-benzo[d]imidazole-4-carboxamide]",inhibition at 0.00508 µM,"[1]; replicate 1, read-out: Inh % 1",-7%
same,inhibition at 0.00508 µM,"[1]; replicate 2, read-out: Inh % 2",-8.2%
same,inhibition at 0.0152 µM,"[1]; replicate 1, read-out: Inh % 1",-3%
same,inhibition at 0.0152 µM,"[1]; replicate 2, read-out: Inh % 2",-8%
same,inhibition at 0.0457 µM,"[1]; replicate 1, read-out: Inh % 1",-14.2%
same,inhibition at 0.0457 µM,"[1]; replicate 2, read-out: Inh % 2",-14.8%
same,inhibition at 0.41 µM,"[1]; replicate 1, read-out: Inh % 1",-13.7%
same,inhibition at 0.41 µM,"[1]; replicate 2, read-out: Inh % 2",-16%
same,inhibition at 1.23 µM,"[1]; replicate 1, read-out: Inh % 1",-13.7%
same,inhibition at 1.23 µM,"[1]; replicate 2, read-out: Inh % 2",-10.6%
same,inhibition at 3.7 µM,"[1]; replicate 1, read-out: Inh % 1",-16.2%
same,inhibition at 3.7 µM,"[1]; replicate 2, read-out: Inh % 2",-4.5%
same,inhibition at 11.11 µM,"[1]; replicate 1, read-out: Inh % 1",-9.3%
same,inhibition at 11.11 µM,"[1]; replicate 2, read-out: Inh % 2",-8.6%
same,inhibition at 33.33 µM,"[1]; replicate 1, read-out: Inh % 1",3.2%
same,inhibition at 33.33 µM,"[1]; replicate 2, read-out: Inh % 2",-1.4%
same,inhibition at 100 µM,"[1]; replicate 1, read-out: Inh % 1",39.9%
same,inhibition at 100 µM,"[1]; replicate 2, read-out: Inh % 2",37.2%
same,IC50,[1],> 100000 nM
same,inhibition at 0.01 µM,PARP-1; [3],47.5%
same,inhibition at 0.01 µM,PARP-1; [4],47.5%
same,IC50,PARP-1; read-out: PARP-1 IC50,7.1 nM
same,IC50,"PARP-1; supplement sheet, read-out: IC50 PAPR-1",7.14 nM
same,LogIC50,"[2]; CAPAN-1, curve-fit output, Log (uM)",2.153
same,IC50,[2],> 100000 nM
same,inhibition at 0.00508 µM,"[2]; CAPAN-1, 0.00508 uM, replicate 1, read-out: Inh % 1",2.8%
same,inhibition at 0.00508 µM,"[2]; CAPAN-1, 0.00508 uM, replicate 2, read-out: Inh % 2",-6.9%
same,inhibition at 0.0152 µM,"[2]; CAPAN-1, 0.0152 uM, replicate 1, read-out: Inh % 1",3.5%
same,inhibition at 0.0152 µM,"[2]; CAPAN-1, 0.0152 uM, replicate 2, read-out: Inh % 2",0.5%
same,inhibition at 0.0457 µM,"[2]; replicate 1, read-out: Inh % 1",5%
same,inhibition at 0.0457 µM,"[2]; replicate 2, read-out: Inh % 2",0.2%
same,inhibition at […],"[2]; replicate 1, read-out: Inh % 1",-1.8%
same,inhibition at […],"[2]; replicate 2, read-out: Inh % 2",-3%
same,inhibition at 0.41 µM,"[2]; replicate 1, read-out: Inh % 1",6.4%
same,inhibition at 0.41 µM,"[2]; replicate 2, read-out: Inh % 2",6.3%
same,inhibition at 1.23 µM,"[2]; replicate 1, read-out: Inh % 1",-2.4%
same,inhibition at 1.23 µM,"[2]; replicate 2, read-out: Inh % 2",-3.6%
same,inhibition at 3.7 µM,"[2]; replicate 1, read-out: Inh % 1",7.7%
same,inhibition at 3.7 µM,"[2]; replicate 2, read-out: Inh % 2",10.2%
same,inhibition at 11.11 µM,"[2]; replicate 1, read-out: Inh % 1",2.2%
same,inhibition at 11.11 µM,"[2]; replicate 2, read-out: Inh % 2",3%
same,inhibition at 33.33 µM,"[2]; replicate 1, read-out: Inh % 1",29.9%
same,inhibition at 33.33 µM,"[2]; replicate 2, read-out: Inh % 2",20.6%
same,inhibition at 100 µM,"[2]; replicate 1, read-out: Inh % 1",46.6%
same,inhibition at 100 µM,"[2]; replicate 2, read-out: Inh % 2",35.5%
same,inhibition at 0.01 µM,PARP-2; [5],66.2%
same,inhibition at 0.01 µM,PARP-2; [6],66.2%
same,IC50,PARP-2; read-out: PARP-2 IC50,3.3 nM
same,IC50,"PARP-2; supplement sheet, read-out: IC50 PAPR-2",3.33 nM
"NC(=O)c1cccc2[nH]c(C3CCN(CCN4C(=O)c5ccccc5C4=O)C3)nc12 (stereo not drawn) [Compound 5ck, 2-(1-(2-(1,3-Dioxoisoindolin-2-yl)ethyl)pyrrolidin-3-yl)-1H-benzo[d]imidazole-4-carboxamide]",inhibition at 0.00508 µM,"[1]; replicate 1, read-out: Inh % 1",-0.108%
same,inhibition at 0.00508 µM,"[1]; replicate 2, read-out: Inh % 2",-3.8%
same,inhibition at 0.0152 µM,"[1]; replicate 1, read-out: Inh % 1",-3.1%
same,inhibition at 0.0152 µM,"[1]; replicate 2, read-out: Inh % 2",-1.8%
same,inhibition at 0.0457 µM,"[1]; replicate 1, read-out: Inh % 1",-9.3%
same,inhibition at 0.0457 µM,"[1]; replicate 2, read-out: Inh % 2",-11.9%
same,inhibition at 0.41 µM,"[1]; replicate 1, read-out: Inh % 1",-11%
same,inhibition at 0.41 µM,"[1]; replicate 2, read-out: Inh % 2",-21.7%
same,inhibition at 1.23 µM,"[1]; replicate 1, read-out: Inh % 1",-18.8%
same,inhibition at 1.23 µM,"[1]; replicate 2, read-out: Inh % 2",-14.6%
same,inhibition at 3.7 µM,"[1]; replicate 1, read-out: Inh % 1",-15.1%
same,inhibition at 3.7 µM,"[1]; replicate 2, read-out: Inh % 2",-12.2%
same,inhibition at 11.11 µM,"[1]; replicate 1, read-out: Inh % 1",-14.1%
same,inhibition at 11.11 µM,"[1]; replicate 2, read-out: Inh % 2",-10%
same,inhibition at 33.33 µM,"[1]; replicate 1, read-out: Inh % 1",-6.4%
same,inhibition at 33.33 µM,"[1]; replicate 2, read-out: Inh % 2",-12%
same,inhibition at 100 µM,"[1]; replicate 1, read-out: Inh % 1",-8.9%
same,inhibition at 100 µM,"[1]; replicate 2, read-out: Inh % 2",-13.6%
same,IC50,[1],> 100000 nM
same,inhibition at 0.01 µM,PARP-1; [3],6.02%
same,inhibition at 0.01 µM,PARP-1; [4],6%
same,IC50,[2],> 100000 nM
same,inhibition at 0.0457 µM,"[2]; replicate 1, read-out: Inh % 1",-1.5%
same,inhibition at 0.0457 µM,"[2]; replicate 2, read-out: Inh % 2",-9.2%
same,inhibition at […],"[2]; replicate 1, read-out: Inh % 1",8.7%
same,inhibition at […],"[2]; replicate 2, read-out: Inh % 2",-3.2%
same,inhibition at 0.41 µM,"[2]; replicate 1, read-out: Inh % 1",9%
same,inhibition at 0.41 µM,"[2]; replicate 2, read-out: Inh % 2",-5.8%
same,inhibition at 1.23 µM,"[2]; replicate 1, read-out: Inh % 1",3.9%
same,inhibition at 1.23 µM,"[2]; replicate 2, read-out: Inh % 2",-9.8%
same,inhibition at 3.7 µM,"[2]; replicate 1, read-out: Inh % 1",1.2%
same,inhibition at 3.7 µM,"[2]; replicate 2, read-out: Inh % 2",2.6%
same,inhibition at 11.11 µM,"[2]; replicate 1, read-out: Inh % 1",-2.3%
same,inhibition at 11.11 µM,"[2]; replicate 2, read-out: Inh % 2",-4.3%
same,inhibition at 33.33 µM,"[2]; replicate 1, read-out: Inh % 1",6.8%
same,inhibition at 33.33 µM,"[2]; replicate 2, read-out: Inh % 2",4.4%
same,inhibition at 100 µM,"[2]; replicate 1, read-out: Inh % 1",-2.5%
same,inhibition at 100 µM,"[2]; replicate 2, read-out: Inh % 2",-5.6%
same,inhibition at 0.00508 µM,"[2]; CAPAN-1, Conc. 0.00508 uM, replicate 1, read-out: Inh % 1",2.6%
same,inhibition at 0.00508 µM,"[2]; CAPAN-1, Conc. 0.00508 uM, replicate 2, read-out: Inh % 2",0.639%
same,inhibition at 0.0152 µM,"[2]; CAPAN-1, Conc. 0.0152 uM, replicate 1, read-out: Inh % 1",6.1%
same,inhibition at 0.0152 µM,"[2]; CAPAN-1, Conc. 0.0152 uM, replicate 2, read-out: Inh % 2",-0.5%
same,inhibition at 0.01 µM,PARP-2; [5],37.1%
same,inhibition at 0.01 µM,PARP-2; [6],37.1%
